From patent US12122816B2, “Long acting peptide tyrosine tyrosine (PYY) analogs and methods of use” (Intarcia Therapeutics, Inc., priority 2020, dated 2024)
Read-outs that look alike come from different tables or passages of the source. Starred links: 1 amine or outer side, 2 acyl side, 3 side chain; linkers in the order of their positions; H or OH if unused. Residues, ends and D or L forms follow the SMILES beside them. Groups on a side chain read outwards from the residue. *: point of attachment. C20 diacid = O=C(O)CCCCCCCCCCCCCCCCCCC(=O)*; γGlu = O=C(O)[C@H](CCC(=O)[*:2])N[*:1]

Experiments:
[1] = In vitro metabolic stability in kidney brush border membranes (kBBM); assay type: in vitro ADME; conditions: 1 mcM peptide, 37° C.
Method: In vitro incubations in kidney brush border membrane (kBBM) preparations were used to characterize the ability of peptides to resist degradation by proteases and peptidases in the systemic circulation. kBBM were selected because they contain a high concentration of a diverse set of proteases and peptidases, many of which are present throughout the body.
Brush border membranes from rat and human kidney tissue were prepared via centrifugation and stored at −70° C. Thawed stocks of rat or human kBBM were diluted to the appropriate concentration in 25 mM HEPES buffer (pH 7.4) containing 1% casein and aliquoted into a 96-well plate. The kBBM solutions were pre-warmed for 10 minutes at 37° C. […] The final concentration of kBBM in each incubation was 50 mcg protein/mL. Reactions were maintained at 37° C. in a shaking water bath. […] Quenched samples were centrifuged at 2178×g for 10 min and then a portion of the supernatants were transferred to a clean 96-well plate and diluted 1:1 with water. Samples were analyzed by UPLC-MS/MS.

[2] = molecular target: T1, human Y5 receptor (Homo sapiens, UniProt Q15761); assay: NPY receptor functional assay (cAMP, HEK-CNG cells, ACTOne membrane potential dye); assay type: cell-based; conditions: NPY5R pEC50, HEK-CNG cells; standard NPY; species (human or rat) not given
T1 sequence (Q15761 1-445): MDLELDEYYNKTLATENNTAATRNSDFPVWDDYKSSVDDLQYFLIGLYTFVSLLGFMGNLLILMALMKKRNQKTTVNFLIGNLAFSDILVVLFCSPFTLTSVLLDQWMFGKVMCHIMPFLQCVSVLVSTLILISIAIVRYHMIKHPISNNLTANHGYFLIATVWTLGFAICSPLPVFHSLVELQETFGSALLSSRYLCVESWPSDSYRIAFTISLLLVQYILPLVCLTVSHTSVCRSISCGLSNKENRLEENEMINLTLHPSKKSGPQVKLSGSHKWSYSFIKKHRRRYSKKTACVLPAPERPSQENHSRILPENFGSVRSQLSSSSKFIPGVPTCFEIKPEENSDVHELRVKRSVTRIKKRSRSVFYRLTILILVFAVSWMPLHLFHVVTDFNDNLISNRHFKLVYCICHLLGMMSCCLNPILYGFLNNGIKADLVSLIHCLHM
In short: (§1)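 HEK-CNG cells stably expressing each human receptor; peptides added in triplicate for 50 minutes at room temperature, with agonism read as decreased isoproterenol-induced membrane potential dye signal (final/initial read).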

[3] = molecular target: T2, human Y2 receptor (Homo sapiens, UniProt P49146); assay: as above; assay type: cell-based; conditions: NPY2R pEC50, HEK-CNG cells; standard PYY(3-36); species (human or rat) not given
T2 sequence (P49146 1-381): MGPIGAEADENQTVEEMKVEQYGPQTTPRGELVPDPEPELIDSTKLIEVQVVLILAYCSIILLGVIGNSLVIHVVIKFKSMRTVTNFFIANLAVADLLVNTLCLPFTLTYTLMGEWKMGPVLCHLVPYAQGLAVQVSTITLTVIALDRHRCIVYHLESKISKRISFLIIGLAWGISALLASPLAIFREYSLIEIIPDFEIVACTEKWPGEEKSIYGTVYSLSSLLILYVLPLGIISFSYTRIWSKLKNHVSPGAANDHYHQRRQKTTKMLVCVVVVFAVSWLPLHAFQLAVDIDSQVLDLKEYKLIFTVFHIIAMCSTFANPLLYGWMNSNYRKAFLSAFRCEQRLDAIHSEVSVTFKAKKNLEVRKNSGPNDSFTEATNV
In short: as §1

[4] = In vitro stability in subcutaneous (SC) tissue homogenates; assay type: in vitro ADME; conditions: subcutaneous tissue homogenate, pH 7.4; human SC tissue homogenate 1.0 mg protein/mL, 10 mcM peptide, 37° C.; read-out: (H)SC tissue stability t½ (converted)
Method: In vitro incubations in subcutaneous (SC) tissue homogenates were used to characterize the ability of peptides to resist pre-systemic degradation by proteases and peptidases after SC administration. […] Peptides with high SC bioavailability are stable in this assay, while peptides with low SC bioavailability are unstable in this assay.
Human SC tissue was homogenized in cold 25 mM HEPES buffer (pH 7.4, 10-fold volume based on sample weight), and then filtered through a double layer of cheesecloth. The filtrates were aliquoted, flash frozen on a methanol/dry ice bath and stored at −80° C. The protein concentration of each pooled batch was determined using the BCA protein assay. Thawed stocks of human SC tissue homogenates were diluted to 1.0 mg protein/mL in 25 mM HEPES buffer (pH 7.4) and aliquoted into a 96-well plate. The diluted SC homogenates were pre-warmed for 10 minutes at 37° C. […] Reactions were maintained at 37° C. in a shaking water bath. […] Quenched samples were centrifuged at 2178×g for 10 min and then a portion of the supernatants were transferred to a clean 96-well plate and diluted 1:10 with water. Samples were analyzed by UPLC-MS/MS.

[5] = pH 7.4, human kBBM 50 mcg protein/mL, read-out: hkBBM t½ (converted)

Structure (SMILES) | half-life at 1 mcM [1, 5] | EC50 [2] | EC50 [3] | half-life at 10 mcM [4] | half-life at 1 mcM ([1]; pH 7.4, rat kBBM 50 mcg protein/mL, read-out: rkBBM t½)
CC(C)C[C@H](NC(=O)[C@H](CC(=O)O)NC(=O)[C@H](CCCCNC(=O)CC[C@H](NC(=O)CC[C@H](NC(=O)CCCCCCCCCCCCCCCCCCC(=O)O)C(=O)O)C(=O)O)NC(=O)[C@H](Cc1ccc(O)cc1)NC(=O)[C@H](Cc1ccc(O)cc1)NC(=O)[C@H](CCCNC(=N)N)NC(=O)[C@H](CC(=O)O)NC(=O)[C@H](Cc1c[nH]c2ccccc12)NC(=O)[C@H](CCC(=O)O)NC(=O)[C@H](CCCCN)NC(=O)[C@@H]1CCCN1C(=O)[C@H](CO)NC(=O)[C@H](C)NC(=O)[C@H](CC(=O)O)NC(=O)[C@H](CCC(=O)O)NC(=O)CNC(=O)[C@@H]1CCCN1C(=O)[C@H](CCCCN)NC(=O)[C@H](CCC(=O)O)NC(=O)[C@@H]1CCCN1C(=O)[C@H](CCCCN)NC(=O)[C@@H]1CCCN1)C(=O)N[C@@H](CCCNC(=N)N)C(=O)N[C@@H](Cc1c[nH]cn1)C(=O)N[C@@H](Cc1ccc(O)cc1)C(=O)N[C@@H](CC(C)C)C(=O)N[C@@H](CC(N)=O)C(=O)N[C@@H](Cc1c[nH]c2ccccc12)C(=O)N[C@@H](CC(C)C)C(=O)N[C@H](C(=O)N[C@@H](CCCNC(=N)N)C(=O)N[C@@H](CCC(N)=O)C(=O)N[C@@H](CCCNC(=N)N)C(=O)N[C@@H](Cc1ccccc1)C(N)=O)[C@@H](C)O [Compound A34] | 402 min | 1.58 nM | 0.0631 nM | 294 min | 
CC(C)C[C@H](NC(=O)[C@H](CC(=O)O)NC(=O)[C@H](CCCCNC(=O)CC[C@H](NC(=O)CC[C@H](NC(=O)CCCCCCCCCCCCCCCCCCC(=O)O)C(=O)O)C(=O)O)NC(=O)[C@H](Cc1ccc(O)cc1)NC(=O)[C@H](Cc1ccc(O)cc1)NC(=O)[C@H](CCCNC(=N)N)NC(=O)[C@H](CC(N)=O)NC(=O)[C@H](Cc1c[nH]c2ccccc12)NC(=O)[C@H](CCC(=O)O)NC(=O)[C@H](CCCCN)NC(=O)[C@@H]1CCCN1C(=O)[C@H](CO)NC(=O)[C@H](C)NC(=O)[C@H](CC(=O)O)NC(=O)[C@H](CCCCN)NC(=O)CNC(=O)[C@@H]1CCCN1C(=O)[C@H](CCCCN)NC(=O)[C@H](CCC(=O)O)NC(=O)[C@@H]1CCCN1C(=O)[C@H](CCCCN)NC(=O)[C@@H]1CCCN1)C(=O)N[C@@H](CCCNC(=N)N)C(=O)N[C@@H](Cc1c[nH]cn1)C(=O)N[C@@H](Cc1ccc(O)cc1)C(=O)N[C@@H](CC(C)C)C(=O)N[C@@H](CC(N)=O)C(=O)N[C@@H](Cc1c[nH]c2ccccc12)C(=O)N[C@@H](CC(C)C)C(=O)N[C@H](C(=O)N[C@@H](CCCNC(=N)N)C(=O)N[C@@H](CCC(N)=O)C(=O)N[C@@H](CCCNC(=N)N)C(=O)N[C@@H](Cc1ccccc1)C(N)=O)[C@@H](C)O [Compound A28] (H-PKPEKPGKDASPKEWNRYYK([γGlu-γGlu-C20 diacid])DLRHYLNWLTRQRF-NH2; N-terminus assumed) | 312 min | 1.58 nM | 0.0316 nM | 12 min | 
CC(C)C[C@H](NC(=O)[C@H](CC(=O)O)NC(=O)[C@H](CCCCNC(=O)CC[C@H](NC(=O)COCCOCCNC(=O)COCCOCCNC(=O)CC[C@H](NC(=O)CCCCCCCCCCCCCCCCCCC(=O)O)C(=O)O)C(=O)O)NC(=O)[C@H](Cc1ccc(O)cc1)NC(=O)[C@H](Cc1ccc(O)cc1)NC(=O)[C@H](CCCNC(=N)N)NC(=O)[C@H](CC(N)=O)NC(=O)[C@H](Cc1c[nH]c2ccccc12)NC(=O)[C@H](CCC(=O)O)NC(=O)[C@H](CCC(=O)O)NC(=O)[C@@H]1CCCN1C(=O)[C@H](CO)NC(=O)[C@H](C)NC(=O)[C@H](CC(=O)O)NC(=O)[C@H](CCCCN)NC(=O)CNC(=O)[C@@H]1CCCN1C(=O)[C@H](C)NC(=O)[C@H](CCC(=O)O)NC(=O)[C@@H]1CCCN1C(=O)[C@H](CCCCN)NC(=O)[C@@H]1CCCN1)C(=O)N[C@@H](CCCNC(=N)N)C(=O)N[C@@H](Cc1c[nH]cn1)C(=O)N[C@@H](Cc1ccc(O)cc1)C(=O)N[C@@H](CC(C)C)C(=O)N[C@@H](CC(N)=O)C(=O)N[C@@H](Cc1c[nH]c2ccccc12)C(=O)N[C@@H](CC(C)C)C(=O)N[C@H](C(=O)N[C@@H](CCCNC(=N)N)C(=O)N[C@@H](CCC(N)=O)C(=O)N[C@@H](CCCNC(=N)N)C(=O)N[C@@H](Cc1ccccc1)C(N)=O)[C@@H](C)O [Compound A16] | > 720 min | 0.794 nM | 0.0631 nM | 438 min | > 720 min
CC(C)C[C@H](NC(=O)[C@H](CC(=O)O)NC(=O)[C@H](CCCCN)NC(=O)[C@H](Cc1ccc(O)cc1)NC(=O)[C@H](Cc1ccc(O)cc1)NC(=O)[C@H](CCCNC(=N)N)NC(=O)[C@H](CC(N)=O)NC(=O)[C@H](Cc1c[nH]c2ccccc12)NC(=O)[C@H](CCC(=O)O)NC(=O)[C@H](CCCCN)NC(=O)[C@@H]1CCCN1C(=O)[C@H](CO)NC(=O)[C@H](C)NC(=O)[C@H](CC(=O)O)NC(=O)[C@H](CCCCNC(=O)CC[C@H](NC(=O)CC[C@H](NC(=O)CCCCCCCCCCCCCCCCCCC(=O)O)C(=O)O)C(=O)O)NC(=O)CNC(=O)[C@@H]1CCCN1C(=O)[C@H](CCCCN)NC(=O)[C@H](CCC(=O)O)NC(=O)[C@@H]1CCCN1C(=O)[C@H](CCCCN)NC(=O)[C@@H]1CCCN1)C(=O)N[C@@H](CCCNC(=N)N)C(=O)N[C@@H](Cc1c[nH]cn1)C(=O)N[C@@H](Cc1ccc(O)cc1)C(=O)N[C@@H](CC(C)C)C(=O)N[C@@H](CC(N)=O)C(=O)N[C@@H](Cc1c[nH]c2ccccc12)C(=O)N[C@@H](CC(C)C)C(=O)N[C@H](C(=O)N[C@@H](CCCNC(=N)N)C(=O)N[C@@H](CCC(N)=O)C(=O)N[C@@H](CCCNC(=N)N)C(=O)N[C@@H](Cc1ccccc1)C(N)=O)[C@@H](C)O [Compound A27] (H-PKPEKPGK([γGlu-γGlu-C20 diacid])DASPKEWNRYYKDLRHYLNWLTRQRF-NH2; N-terminus assumed) | 600 min | 1.26 nM | 0.02 nM | 12 min | 
CC(C)C[C@H](NC(=O)[C@H](CC(=O)O)NC(=O)[C@H](CCCCN)NC(=O)[C@H](Cc1ccc(O)cc1)NC(=O)[C@H](Cc1ccc(O)cc1)NC(=O)[C@H](CCCNC(=N)N)NC(=O)[C@H](CC(=O)O)NC(=O)[C@H](Cc1c[nH]c2ccccc12)NC(=O)[C@H](CCC(=O)O)NC(=O)[C@H](CCCCN)NC(=O)[C@@H]1CCCN1C(=O)[C@H](CO)NC(=O)[C@H](C)NC(=O)[C@H](CC(=O)O)NC(=O)[C@H](CCC(=O)O)NC(=O)CNC(=O)[C@@H]1CCCN1C(=O)[C@H](CCCCNC(=O)CC[C@H](NC(=O)CC[C@H](NC(=O)CCCCCCCCCCCCCCCCC(=O)O)C(=O)O)C(=O)O)NC(=O)[C@H](CCC(=O)O)NC(=O)[C@@H]1CCCN1C(=O)[C@H](CCCCN)NC(=O)[C@@H]1CCCN1)C(=O)N[C@@H](CCCNC(=N)N)C(=O)N[C@@H](Cc1c[nH]cn1)C(=O)N[C@@H](Cc1ccc(O)cc1)C(=O)N[C@@H](CC(C)C)C(=O)N[C@@H](CC(N)=O)C(=O)N[C@@H](Cc1c[nH]c2ccccc12)C(=O)N[C@@H](CC(C)C)C(=O)N[C@H](C(=O)N[C@@H](CCCNC(=N)N)C(=O)N[C@@H](CCC(N)=O)C(=O)N[C@@H](CCCNC(=N)N)C(=O)N[C@@H](Cc1ccccc1)C(N)=O)[C@@H](C)O [Compound A35] | 336 min | 0.794 nM | 0.0316 nM | 78 min | 
